Measurements published in patent US8252832B2, “Kinesin inhibitors as cancer therapeutics” (Novartis AG, priority 2007, dated 2012).
Where two headings read alike, the source gives them in different places.

Tests used:
Type in all cases: cell-based
KMS11 = assay: CellTiter-Glo, hematologic malignancy panel; conditions: for GI50: Homo sapiens, KMS-11, MM
Text: (§1) Identification of tumor types that are the most sensitive to the KSP inhibitors of the present invention can be accomplished using an unbiased approach that uses several cell-based assays. The assays chosen were as follows: • CellTiter-Glo®. This is an assay designed to measure ATP concentration in a cell culture, and can be correlated to cell number. Briefly CellTiter-Glo® (Promega Corporation) is a homogeneous method using the single CellTiter-Glo® reagent to detect ATP wherein ATP in the assay drives the activity of a thermostable luciferase to create a luminescent signal which can then be measured and correlated with the number of viable cells. Briefly, for adherent cells, 1,000 to 5,000 cells/well were plated in 96-well plates (100 μl/well) and let to adhere for 24 hours before being treated with drug. For non-adherent cells, 1,000 to 10,000 cells/well were plated in 96-well plates (100 μl/well) and immediately treated with drug. Drug dilutions were prepared in DMSO at 1000 times the final concentration. These dilutions were then diluted 1/100 in growth media before being added to the cells (11 μl/well) to achieve the desired final concentration. After 48 h in a 37° C. tissue culture incubator, the plates were processed for the CellTiter-Glo®assay according to the manufacturer's instructions. Protocol for a 72 hour cell proliferation assay: The 72 hour assay was performed the same way as the 48 hour assay except for the following modifications: For adherent cells, 500 to 5,000 cells/well were plated in 96-well plates (90 μl/well cell growth media) and left to adhere for 24 hours before being treated with drug. For non-adherent cells, 1,000 to 10,000 cells/well were plated in 96-well plates (90 μl/well cell growth media) and immediately treated with drug. Data values presented represent the concentration of test compound required for a 50% reduction in growth. • LDH release. The Cytotoxicity Detection KitPLUS (LDH) assay (Roche Diagnostics, Manheim, Germany) measures the amount of LDH released in the media by dying cells; LDH catalyzes the conversion of lactate into pyruvate. The enzymatic reaction is coupled to a chemical reaction that uses a tetrazolium salt to form a formazan that is red and can be detected by its absorbance at 490 nm. This assay measures the amount of cell death after drug treatment. Cells were plated at 10,000 cells/well in 96-well plates (100 μl/well). Adherent cells were let to adhere for 24 hours before being treated with drug, whereas non-adherent cells were immediately treated with drug. Drug dilutions were prepared in DMSO at 1000 times the final concentration. These dilutions were then diluted 1/100 in growth media before being added to the cells (11 μl/well) to achieve the desired final concentration. After 48 h in a 37° C. tissue culture incubator, the plates were processed for the Cytotoxicity Detection KitPLUS (LDH) assay according to the manufacturer's instructions. The media only values were subtracted from all the data points before analysis. Data values presented correspond to the compound concentration wherein LDH output is at half maximal level. • Caspase-Glo® 3/7. The Caspase-Glo® 3/7 Assay (Promega Corporation) is a homogeneous luminescent assay that measures caspase-3/7 activities. The assay provides a proluminescent caspase-3/7 DEVD-aminoluciferin substrate and a thermostable luciferase in a reagent optimized for caspase-3/7 activity, luciferase activity and cell lysis. Adding the single Caspase-Glo® 3/7 Reagent results in cell lysis, followed by caspase cleavage of the substrate. This liberates free aminoluciferin, which is consumed by the luciferase, generating a luminescent signal. The signal is proportional to caspase-3/7 activity. Data values presented correspond to the compound concentration wherein caspase 3/7 activity is at half maximal level. […]

Kasumi-1 = assay: CellTiter-Glo, hematologic malignancy panel; conditions: AML; for GI50: Homo sapiens
Text: as §1

H929-Luc = assay: CellTiter-Glo, hematologic malignancy panel; conditions: MM
Text: as §1

OVCAR-3 = assay: CellTiter-Glo, NCI60 panel; conditions: Ovarian; for GI50: Homo sapiens
Text: as §1

RXF 393 = assay: CellTiter-Glo, NCI60 panel; conditions: Renal; for GI50: Homo sapiens
Text: as §1

HL-60 = assay: CellTiter-Glo, NCI60 panel; conditions: Leukemia; for GI50: Homo sapiens
Text: as §1

HOP-92 = assay: CellTiter-Glo, NCI60 panel; conditions: NSCL; for GI50: Homo sapiens
Text: as §1

LOX IMVI = assay: CellTiter-Glo, NCI60 panel; conditions: Melanoma; for GI50: Homo sapiens
Text: as §1

SUDHL-4 = assay: Cell cycle profile by FACS (propidium iodide DNA content); conditions: SUDHL-4, 48 hr treatment
Procedure: Lymphoma cell line cells were treated with the KSP inhibitors of the invention and analyzed by FACs analysis. Approximately 2×10^5 cells were harvested, cell pellets were washed with cold PBS twice and re-suspended in 500 μL cold PBS. Cells were fixed by adding 8 mL cold 80% ethanol while vortexing slowly. After 15 minutes of incubation fixed cells were washed twice with PBS and cell pellets were re-suspended in 1 mL of PI/RNASE staining buffer (BD Pharmingen™ catalog #550825) and incubated for 15 minutes at 37° C. protected from light. Propidium iodide (PI) is a fluorescent vital dye that stains both DNA and RNA. Therefore the RNA must be removed by digestion with ribonuclease (RNase). Stained cells were passed through a cell strainer into a FACS tube to reduce the number of cell aggregates (BD Falcon #352235) prior to FACS analysis. The DNA content of the fixed and stained cells was analyzed by the BD FACSCalibur flow cytometer using the CellQuest software.
Following mitotic arrest, cells have several options including coming out of arrest and dividing normally, undergoing apoptosis directly, or exiting mitosis without cytokinesis (a phenomenon called mitotic slippage). If cells undergo mitotic slippage, they can enter a pseudo-G1 and then either continue to cycle, senesce, or undergo apoptosis. […]

[1] = GI50 in nM, read-out: Log(GI50) (converted)

CC(C)(C)[C@H](c1nc(-c2cc(F)ccc2F)cn1Cc1ccccc1)N(CC[C@H](N)CF)C(=O)CO [Compound IIa]
GI50 (KMS11; [1]): 0.483 nM | GI50 (KMS11; read-out: GI50): 0.48 nM | Differential vs mean Log(GI50) (KMS11; MM): −0.154 | Differential vs mean Log(GI50) (Kasumi-1): −0.113 | GI50 (Kasumi-1; [1]): 0.44 nM | GI50 (Kasumi-1; read-out: GI50): 0.44 nM | Differential vs mean Log(GI50) (H929-Luc): −0.697 | GI50 (H929-Luc; [1]): 1.69 nM | GI50 (H929-Luc; read-out: GI50): 1.69 nM | GI50 (OVCAR-3; [1]): 10 nM | GI50 (OVCAR-3; read-out: GI50): 10 nM | Differential vs mean Log(GI50) (OVCAR-3): −0.669 | GI50 (RXF 393; [1]): 10 nM | GI50 (RXF 393; read-out: GI50): 10 nM | Differential vs mean Log(GI50) (RXF 393): −0.669 | GI50 (HL-60; [1]): 0.165 nM | GI50 (HL-60; read-out: GI50): 0.165 nM | Differential vs mean Log(GI50) (HL-60): 1.114 | GI50 (HOP-92; [1]): 10 nM | GI50 (HOP-92; read-out: GI50): 10 nM | Differential vs mean Log(GI50) (HOP-92): −0.669 | GI50 (LOX IMVI; [1]): 10 nM | GI50 (LOX IMVI; read-out: GI50): 10 nM | Differential vs mean Log(GI50) (LOX IMVI): −0.669 | cell cycle profile (DNA content, FACS) (SUDHL-4): underwent apoptosis after 48 hr treatment
